Tested on: IgE antibodies from patients
Assay: Epitope mapping (2) overlapping (10-amino-acid peptides) and (3) alanine scanning on peptide arrays
Assay type: binding, human
Conditions: overlapping peptides with flanking sequence
Outline: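 Overlapping 10-mer peptides shifted by one residue, and alanine-substituted peptides, spotted on cellulose and probed with patient and non-egg-allergic sera; IgE binding read by anti-human IgE-HRP chemiluminescence. Signal expressed relative to parent sequence and graded in bands from <20% (no binding) to ≥90% (retained binding).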

| binding to IgE antibodies from patients, sequence comprising a region amino-terminally adjacent to the epitope | binding to IgE antibodies from patients, sequence comprising a region carboxy-terminally adjacent to the epitope | Substance |
| --- | --- | --- |
| binding to IgE antibodies from patients | – | SEQ ID NO: 576: sequence comprising a region amino-terminally adjacent to epitope 35 (YQVSKRVS; epitope) |
| binding to IgE antibodies from patients | – | SEQ ID NO: 583: sequence comprising a region amino-terminally adjacent to epitope 36 (DIFELGLDG; epitope) |
| – | binding to IgE antibodies from patients | SEQ ID NO: 584: sequence comprising a region carboxy-terminally adjacent to epitope 36 (EPTLEALFG; epitope) |
| binding to IgE antibodies from patients | – | SEQ ID NO: 604: sequence comprising a region amino-terminally adjacent to epitope 38 (LVNYSPTK; epitope) |
| – | binding to IgE antibodies from patients | SEQ ID NO: 609: sequence comprising a region carboxy-terminally adjacent to epitope 38 (LQMSSSV; epitope) |
| binding to IgE antibodies from patients | – | SEQ ID NO: 622: sequence comprising a region amino-terminally adjacent to epitope 40 (GRYLHLAAV; epitope) |
| binding to IgE antibodies from patients | – | SEQ ID NO: 623: sequence comprising a region amino-terminally adjacent to epitope 40 (GRYLHLAAVN; epitope) |
| – | binding to IgE antibodies from patients | SEQ ID NO: 631: sequence comprising a region carboxy-terminally adjacent to epitope 41 (QELLFGRLD; epitope) |
| – | binding to IgE antibodies from patients | SEQ ID NO: 632: sequence comprising a region carboxy-terminally adjacent to epitope 41 (QELLFGRLDK; epitope) |
| – | binding to IgE antibodies from patients | SEQ ID NO: 660: sequence comprising a region carboxy-terminally adjacent to epitope 46 (DSDSASGET; epitope) |
| – | binding to IgE antibodies from patients | SEQ ID NO: 676: sequence comprising a region carboxy-terminally adjacent to epitope 47 (PIEKIQVTI; epitope) |

The next lines start with the substance.

| Substance | binding to IgE antibodies from patients, sequence comprising a region amino-terminally adjacent to the epitope | binding to IgE antibodies from patients, sequence comprising a region carboxy-terminally adjacent to the epitope |
| --- | --- | --- |
| SEQ ID NO: 577: sequence comprising a region carboxy-terminally adjacent to epitope 35 (LNPISAKVE; epitope) | – | binding to IgE antibodies from patients |
| SEQ ID NO: 595: sequence comprising a region carboxy-terminally adjacent to epitope 37 (AKVAVKLHQK; epitope) | – | binding to IgE antibodies from patients |
| SEQ ID NO: 605: sequence comprising a region amino-terminally adjacent to epitope 38 (LVNYSPTKG; epitope) | binding to IgE antibodies from patients | – |
| SEQ ID NO: 613: sequence comprising a region amino-terminally adjacent to epitope 39 (ANELLDR; epitope) | binding to IgE antibodies from patients | – |
| SEQ ID NO: 624: sequence comprising a region carboxy-terminally adjacent to epitope 40 (KLEFLLSKK; epitope) | – | binding to IgE antibodies from patients |
| SEQ ID NO: 644: sequence comprising a region amino-terminally adjacent to epitope 42 (QELLFGRL; epitope) | binding to IgE antibodies from patients | – |
| SEQ ID NO: 657: sequence comprising a region amino-terminally adjacent to epitope 46 (VPDIMKMSFD; epitope) | binding to IgE antibodies from patients | – |
| SEQ ID NO: 665: sequence comprising a region carboxy-terminally adjacent to epitope 46 (SDSASGET; epitope) | – | binding to IgE antibodies from patients |
| SEQ ID NO: 672: sequence comprising a region amino-terminally adjacent to epitope 47 (MSFKPVYSDV; epitope) | binding to IgE antibodies from patients | – |

Same assay, conditions: procedures (B) overlapping and (C) alanine scanning

| region within the epitope important for binding to IgE antibodies from patients | Substance |
| --- | --- |
| important for binding | SEQ ID NO: 573: region in epitope 34 (KDEP; epitope) |
| important for binding | SEQ ID NO: 581: region in epitope 35 (SVPGLNP; epitope) |
| important for binding | SEQ ID NO: 585: region in epitope 36 (GKGFE; epitope) |
| important for binding | SEQ ID NO: 589: region in epitope 37 (IVTPGAKVAV; epitope) |
| important for binding | SEQ ID NO: 600: region in epitope 37 (IVTPGAKVAV; epitope) |
| important for binding | SEQ ID NO: 608: region in epitope 38 (PTKGYLQMSS; epitope) |
| important for binding | SEQ ID NO: 616: region in epitope 39 (LLDRKVALT; epitope) |
| important for binding | SEQ ID NO: 641: region in epitope 41 (SGYLKMF; epitope) |
| important for binding | SEQ ID NO: 649: region in epitope 42 (DTLQNVLQ; epitope) |
| important for binding | SEQ ID NO: 658: region in epitope 46 (MKMSFDSDS; epitope) |
| important for binding | SEQ ID NO: 659: region in epitope 46 (MSFDSDSASG; epitope) |
| important for binding | SEQ ID NO: 664: region in epitope 46 (MSFDSDS; epitope) |

The remaining lines, values behind:

| Substance | region within the epitope important for binding to IgE antibodies from patients |
| --- | --- |
| SEQ ID NO: 569: region in epitope 34 (VKLYPEKDEP; epitope) | important for binding |
| SEQ ID NO: 571: region in epitope 34 (KDEPLNV; epitope) | important for binding |
| SEQ ID NO: 579: region in epitope 35 (VSKRVS; epitope) | important for binding |
| SEQ ID NO: 587: region in epitope 37 (SGIV; epitope) | important for binding |
| SEQ ID NO: 592: region in epitope 37 (SGIVTPGAK; epitope) | important for binding |
| SEQ ID NO: 594: region in epitope 37 (IVTPGAKVAV; epitope) | important for binding |
| SEQ ID NO: 598: region in epitope 37 (SGIVTPGA; epitope) | important for binding |
| SEQ ID NO: 602: region in epitope 37 (TPGAKVAV; epitope) | important for binding |
| SEQ ID NO: 617: region in epitope 39 (LLDR; epitope) | important for binding |
| SEQ ID NO: 619: region in epitope 39 (DRKVALTDMT; epitope) | important for binding |
| SEQ ID NO: 627: region in epitope 41 (SGYLKMFG; epitope) | important for binding |
| SEQ ID NO: 630: region in epitope 41 (YLKMFGQELL; epitope) | important for binding |
| SEQ ID NO: 636: region in epitope 41 (SGYLKMFG; epitope) | important for binding |
| SEQ ID NO: 642: region in epitope 41 (GQELL; epitope) | important for binding |
| SEQ ID NO: 647: region in epitope 42 (RLDKDTLQ; epitope) | important for binding |
| SEQ ID NO: 663: region in epitope 46 (PDIMKMSFDS; epitope) | important for binding |
| SEQ ID NO: 669: region in epitope 47 (YSDVPIEKI; epitope) | important for binding |
| SEQ ID NO: 674: region in epitope 47 (YSDVPIEK; epitope) | important for binding |
| SEQ ID NO: 680: region in epitope 47 (SFKPVY; epitope) | important for binding |

— patent US20230190924A1, “ANTIGEN OF ALLERGY AND EPITOPE THEREOF” (HOYU CO., LTD., priority 2017, published 2023)
